Laboratory results taken from patent US5482954A, “Signal transduction inhibitor triazole and diazole compounds” (priority 1994, dated 1996).

Experiments:
A2058 cells [1] = test: [3H]thymidine incorporation; type: cell-based, human; details: 0-10 μg/mL, 24 hr
Procedure: (§1) Proliferation: Two independent methods were used to determine the effect of various compounds on cellular proliferation. The first method utilized [^3 H]thymidine labelling and was performed using A2058, 5R, OVCAR3, and MDA-231 cells. Because the potential effect of compound 1 on thymidine metabolism was unknown, a clonogenic assay was also used. This assay utilized crystal violet nuclear staining.
(§2) For the thymidine incorporation assay, an initial aliquot of 15,000 cells was plated in 96 well plates. The cells were grown to subconfluence, serum-starved, then fed with serum-containing media to which incremental doses of compound 1 (0-10 μg/mL) were added. After 24 hr, the cells were pulsed with [^3 H]thymidine (0.5 μCi/well) for 2 hr. Trichloroacetic acid was added to precipitate […] [^3 H]thymidine. After removal, ice cold ethanol/diethyl ether was added to precipitate cellular nucleic acids. The residue was solubilized with 0.2M NaOH and [^3 H]thymidine incorporation was determined by liquid scintillation counting. Inhibition of thymidine uptake was calculated as a percent of untreated control cell incorporation of labelled thymidine. As FIG. 4 indicates, de novo DNA synthesis was inhibited in all of the tumor cell lines. Maximal inhibition (80%) was found with the 5R cells.

OVCAR3 cells [2] = test: [3H]thymidine incorporation; type: cell-based, human; details: 0-10 μg/mL, 24 hr
Procedure: as §1, §2

MDA-231 cells [3] = test: [3H]thymidine incorporation; type: cell-based, human; details: 0-10 μg/mL, 24 hr
Procedure: as §1, §2

[4] = Side effects in phase I clinical study; type: in vivo, human; details: oral, to date
Description: Seven patients with solid tumor metastasis are undergoing treatment via oral administration of compound 1 under the FDA approved phase I clinical study. […] PT# is patient number. Response is the sum of the products of bidirectional measurements.

[5] = system: T-type voltage gated calcium channels; details: Hupe, et al.; cited from earlier work
OVCAR3 cells [6] = test: Oral treatment of intraperitoneal xenografts; type: in vivo, nude mice
OVCAR3 cells [7] = test: Colony formation (soft agar); type: cell-based; details: Homo sapiens, OVCAR-3
Procedure: Colony formation: Compound 1 was evaluated at three concentrations for inhibition of colony formation in both the A2058 and OVCAR3 cell lines. Colony number was determined in triplicate and compared to the vehicle control run on each 24 well plate to provide a percent. Colonies greater than 60 cells were counted at 100× under phase contrast. […] In a second study, selected compounds were evaluated for their effect on density-independent growth of the A2058 cell line in soft agar. Percent inhibition was determined over triplicate experiments involving three log molar concentrations of the test compound.

A2058 cells [8] = test: Clonogenic (crystal violet) proliferation assay; type: cell-based, human; details: 0-10 μg/mL, 96 hr
Procedure: as §1
(§3) For the clonogenic assay, aliquots of 50,000 cells per well (24 well plates) were grown under standard tissue culture conditions in the presence of increasing doses or test compound (0-10 μg/mL) or vehicle control. After 96 hr, the cells were gently washed with PBS, fixed, and stained with 0.5% crystal violet nuclear stain in 20% methanol. Excess stain was removed with tap water and bound stain was eluted with an equal volume solution of 01N sodium citrate (pH 4.2) and absolute ethanol. Optical density (O.D.) of eluted crystal violet stain was determined at 540 nm. The results of dose-dependent inhibition of tumor cell proliferation by compound 1 are shown in FIG. 5, in which the data are expressed as percent of untreated control cell proliferation for each cell type. The degree of inhibition varied with the cell type and was maximal (76%) for the A2058 cell line.

OVCAR3 cells [9] = test: Clonogenic (crystal violet) proliferation assay; type: cell-based, human; details: 0-10 μg/mL, 96 hr
Procedure: as §1, §3

MDA-231 cells [10] = test: Clonogenic (crystal violet) proliferation assay; type: cell-based, human; details: 0-10 μg/mL, 96 hr
Procedure: as §1, §3

[11] = system: L-type voltage gated calcium channels; details: Hupe, et al.; cited from earlier work
[12] = system: signal transduction and tumor growth; test: Biological and biochemical assays, summary; type: cell-based; details: summary of all assays
Description: Compound 1 was inhibitory for the biological and biochemical assays.

NC(=O)c1nnn(Cc2cc(Cl)c(C(=O)c3ccc(Cl)cc3)c(Cl)c2)c1N [Compound 1]
inhibition of de novo DNA synthesis (A2058 cells [1]): inhibited
inhibition of de novo DNA synthesis (OVCAR3 cells [2]): inhibited
inhibition of de novo DNA synthesis (MDA-231 cells [3]): inhibited
abnormalities of blood cellular composition [4]: no abnormalities of blood cellular composition
bone marrow depression (white cell counts) [4]: do not show any bone marrow depression
liver or kidney function abnormalities [4]: do not show any liver or kidney function abnormalities
neurological toxicity, hair loss or electrolyte imbalances [4]: no neurological toxicity, hair loss or electrolyte imbalances
inhibition of T-type voltage gated calcium channels [5]: inhibit
time to development of ascites (OVCAR3 cells [6]; 100 mg/kg daily oral): Statistically significant differences
tumor necrosis and pulmonary micrometastases (histology) (OVCAR3 cells [6]; 100 mg/kg daily oral): induced tumor necrosis and inhibition of pulmonary micrometastases
volume of ascites at necropsy (OVCAR3 cells [6]; 100 mg/kg daily oral): Statistically significant differences
progression of OVCAR3 xenografts (OVCAR3 cells [6]; FIG. 16B, 100 mg/kg by gavage): inhibits progression of OVCAR3 xenografts
inhibition at 2 µM (OVCAR3 cells [7]): > 70%
maximal inhibition of tumor cell proliferation (A2058 cells [8]): 76%
inhibition of tumor cell proliferation (OVCAR3 cells [9]): dose dependent inhibition of tumor cell proliferation
inhibition of tumor cell proliferation (MDA-231 cells [10]): dose dependent inhibition of tumor cell proliferation
inhibition of L-type voltage gated calcium channels [11]: inhibit
inhibition in the biological and biochemical assays [12]: inhibitory
